The results in this text go back to ChEMBL document CHEMBL1126923, “Novel inhibitors of prolyl 4-hydroxylase. 5. The intriguing structure-activity relationships seen with 2,2'-bipyridine and its 5,5'-dicarboxylic acid derivatives” (J Med Chem, 1993).

Assay [1] has as its system Prolyl 4-hydroxylase (Gallus gallus). Description: Inhibition of prolyl 4-hydroxylase by chromatographic determination of [14C]-succinic acid on ion-exchange minicolumna at 50 ug/mL.
For assay [2] the test system is unchanged. Description: Inhibition of prolyl 4-hydroxylase by chromatographic determination of [14C]-succinic acid on ion-exchange minicolumna at 100 ug/mL.

In assay [1], `CCOc1ccc(NC(=O)c2ccc(-c3ccccn3)nc2)cc1` showed an inhibition of 13%. In the case of `CCOc1ccc(NC(=O)c2ccc(-c3ccc(C(=O)Nc4ccc(OCC)cc4)cn3)nc2)cc1`, the inhibition in assay [2] stood at 13%.

As usually defined, the inhibition is the percentage by which the read-out fell short of the control. A lower inhibition goes with little suppression.
